Laboratory results as given in article PMC9454848, “BMS-986158, a Small Molecule Inhibitor of the Bromodomain and Extraterminal Domain Proteins, in Patients with Selected Advanced Solid Tumors: Results from a Phase 1/2a Trial” (Cancers, 2022).
Read-outs that look alike come from different tables or passages of the source.

Assay: Plasma pharmacokinetics after single dose (C1D1), LC-MS/MS
Type: in vivo, human
Conditions: for half-life / Vd/F / AUC(0-t) / Tmax / Cmax: human, plasma, oral
Protocol: At C1D1 in every dosing schedule cohort, a single dose was administered followed by 168 h (i.e., 7 days) of intensive PK sampling. Following cycle 1, the multiple-dose treatment schedules (described above) began in cycle 2. PK parameters were derived following single dose combined across all schedules and multiple doses at cycle 2 for each schedule. […] PK assessments were evaluated for BMS-986158 and its metabolite using plasma samples at regular intervals. Both the parent and metabolite samples were simultaneously analyzed using a validated liquid chromatography and tandem mass spectrometry assay.
All treated patients who received ≥1 dose of BMS-986158 were evaluated in the safety population. […] All treated patients with available and sufficient serum or plasma samples for the corresponding analytes were included in the PK analyses. […] ECG parameters were evaluated in a categorical analysis, and linear mixed-effects regression modeling was used to describe the quantitative relationship between ΔQTcF and time-matched serum concentrations of BMS-986158 or its metabolite at a single dose.

**Q.** With `Cc1nnn(C)c1-c1cnc2c3ccc(C(C)(C)O)cc3n([C@H](c3ccccc3)C3CCOCC3)c2c1` [BMS-986158] as the compound, how does the “Dose proportionality of plasma concentrations” value (0.75–4.5 mg) read?
**A.** dose proportional

**Q.** And the half-life (0.75 mg, cohort Schedule A, 0.75 mg, n = 4, read-out: Effective T1/2, mean (SD) (converted))?
**A.** 33.7 h

**Q.** And the Vd/F (0.75 mg, cohort Schedule A, 0.75 mg, n = 4, read-out: Vz/F, GM (%CV))?
**A.** 14.7 L

**Q.** And the AUC(0-t) (0.75 mg, cohort Schedule A, 0.75 mg, n = 5, read-out: AUC(0–24), GM (%CV))?
**A.** 1030 ng·h/mL

**Q.** And the AUC(0-t) (0.75 mg, cohort Schedule A, 0.75 mg, n = 5, read-out: AUC(0–T), GM (%CV))?
**A.** 2150 ng·h/mL

**Q.** And the Tmax (0.75 mg, cohort Schedule A, 0.75 mg, n = 5, read-out: Tmax, median)?
**A.** 4 h

**Q.** What about the Cmax (0.75 mg, cohort Schedule A, n = 5) of the same compound?
**A.** 68.8 ng/mL

**Q.** And the AUC(0-t) (1.25 mg, cohort Schedule A, 1.25 mg, n = 3, read-out: AUC(0–24), GM (%CV))?
**A.** 2310 ng·h/mL

**Q.** And the AUC(0-t) (1.25 mg, cohort Schedule A, 1.25 mg, n = 3, read-out: AUC(0–T), GM (%CV))?
**A.** 6370 ng·h/mL

**Q.** And the half-life (1.25 mg, cohort Schedule A, 1.25 mg, n = 3, read-out: Effective T1/2, mean (SD) (converted))?
**A.** 48.7 h

**Q.** What about the Tmax (1.25 mg, cohort Schedule A, 1.25 mg, n = 3, read-out: Tmax, median) of the same compound?
**A.** 1 h

**Q.** What about the Vd/F (1.25 mg, cohort Schedule A, 1.25 mg, n = 3, read-out: Vz/F, GM (%CV)) of the same compound?
**A.** 12.5 L

**Q.** And the Cmax (1.25 mg, cohort Schedule A, n = 3)?
**A.** 175 ng/mL

**Q.** And the half-life (2 mg, cohort Schedule A, 2.0 mg, n = 4, read-out: Effective T1/2, mean (SD) (converted))?
**A.** 41.4 h

**Q.** What about the Vd/F (2 mg, cohort Schedule A, 2.0 mg, n = 4, read-out: Vz/F, GM (%CV)) of the same compound?
**A.** 14.6 L

**Q.** And the AUC(0-t) (2 mg, cohort Schedule A, 2.0 mg, n = 9, read-out: AUC(0–24), GM (%CV))?
**A.** 3610 ng·h/mL

**Q.** And the AUC(0-t) (2 mg, cohort Schedule A, 2.0 mg, n = 9, read-out: AUC(0–T), GM (%CV))?
**A.** 8560 ng·h/mL

**Q.** What about the Tmax (2 mg, cohort Schedule A, 2.0 mg, n = 9, read-out: Tmax, median) of the same compound?
**A.** 2 h

**Q.** And the Cmax (2 mg, cohort Schedule A, n = 9)?
**A.** 260 ng/mL

**Q.** And the AUC(0-t) (2 mg, cohort Schedule B, 2.0 mg, n = 1, read-out: AUC(0–24), GM (%CV))?
**A.** 2360 ng·h/mL

**Q.** And the AUC(0-t) (2 mg, cohort Schedule B, 2.0 mg, n = 1, read-out: AUC(0–T), GM (%CV))?
**A.** 5200 ng·h/mL

**Q.** What about the half-life (2 mg, cohort Schedule B, 2.0 mg, n = 1, read-out: Effective T1/2, mean (SD) (converted)) of the same compound?
**A.** 44.2 h

**Q.** And the Tmax (2 mg, cohort Schedule B, 2.0 mg, n = 1, read-out: Tmax, median)?
**A.** 1 h

**Q.** And the Vd/F (2 mg, cohort Schedule B, 2.0 mg, n = 1, read-out: Vz/F, GM (%CV))?
**A.** 23.2 L

**Q.** What about the Cmax (2 mg, cohort Schedule B, n = 1) of the same compound?
**A.** 207 ng/mL

**Q.** And the AUC(0-t) (2 mg, cohort Schedule C, 2.0 mg, n = 6, read-out: AUC(0–24), GM (%CV))?
**A.** 3660 ng·h/mL

**Q.** What about the AUC(0-t) (2 mg, cohort Schedule C, 2.0 mg, n = 6, read-out: AUC(0–T), GM (%CV)) of the same compound?
**A.** 10900 ng·h/mL

**Q.** What about the half-life (2 mg, cohort Schedule C, 2.0 mg, n = 6, read-out: Effective T1/2, mean (SD) (converted)) of the same compound?
**A.** 64.6 h

**Q.** What about the Tmax (2 mg, cohort Schedule C, 2.0 mg, n = 6, read-out: Tmax, median) of the same compound?
**A.** 1 h

**Q.** What about the Vd/F (2 mg, cohort Schedule C, 2.0 mg, n = 6, read-out: Vz/F, GM (%CV)) of the same compound?
**A.** 13.9 L

**Q.** And the Cmax (2 mg, cohort Schedule C, n = 6)?
**A.** 295 ng/mL

**Q.** And the half-life (3 mg, cohort Schedule A, 3.0 mg, n = 7, read-out: Effective T1/2, mean (SD) (converted))?
**A.** 33.3 h

**Q.** What about the Vd/F (3 mg, cohort Schedule A, 3.0 mg, n = 7, read-out: Vz/F, GM (%CV)) of the same compound?
**A.** 12.8 L

**Q.** What about the AUC(0-t) (3 mg, cohort Schedule A, 3.0 mg, n = 10, read-out: AUC(0–24), GM (%CV)) of the same compound?
**A.** 4940 ng·h/mL

**Q.** What about the AUC(0-t) (3 mg, cohort Schedule A, 3.0 mg, n = 10, read-out: AUC(0–T), GM (%CV)) of the same compound?
**A.** 10500 ng·h/mL

**Q.** And the Tmax (3 mg, cohort Schedule A, 3.0 mg, n = 10, read-out: Tmax, median)?
**A.** 2 h

**Q.** What about the Cmax (3 mg, cohort Schedule A, n = 10) of the same compound?
**A.** 328 ng/mL

**Q.** What about the half-life (3 mg, cohort Schedule B, 3.0 mg, n = 1, read-out: Effective T1/2, mean (SD) (converted)) of the same compound?
**A.** 54 h

**Q.** What about the Vd/F (3 mg, cohort Schedule B, 3.0 mg, n = 1, read-out: Vz/F, GM (%CV)) of the same compound?
**A.** 15.3 L

**Q.** What about the AUC(0-t) (3 mg, cohort Schedule B, 3.0 mg, n = 4, read-out: AUC(0–24), GM (%CV)) of the same compound?
**A.** 6920 ng·h/mL

**Q.** What about the AUC(0-t) (3 mg, cohort Schedule B, 3.0 mg, n = 4, read-out: AUC(0–T), GM (%CV)) of the same compound?
**A.** 28900 ng·h/mL

**Q.** And the Tmax (3 mg, cohort Schedule B, 3.0 mg, n = 4, read-out: Tmax, median)?
**A.** 1.03 h

**Q.** And the Cmax (3 mg, cohort Schedule B, n = 4)?
**A.** 481 ng/mL

**Q.** What about the half-life (3 mg, cohort Schedule C, 3.0 mg, n = 10, read-out: Effective T1/2, mean (SD) (converted)) of the same compound?
**A.** 48.2 h

**Q.** And the Vd/F (3 mg, cohort Schedule C, 3.0 mg, n = 10, read-out: Vz/F, GM (%CV))?
**A.** 15.6 L

**Q.** And the AUC(0-t) (3 mg, cohort Schedule C, 3.0 mg, n = 11, read-out: AUC(0–24), GM (%CV))?
**A.** 4470 ng·h/mL

**Q.** And the AUC(0-t) (3 mg, cohort Schedule C, 3.0 mg, n = 11, read-out: AUC(0–T), GM (%CV))?
**A.** 11500 ng·h/mL

**Q.** What about the Tmax (3 mg, cohort Schedule C, 3.0 mg, n = 11, read-out: Tmax, median) of the same compound?
**A.** 1 h

**Q.** And the Cmax (3 mg, cohort Schedule C, n = 11)?
**A.** 370 ng/mL

**Q.** What about the half-life (4.5 mg, cohort Schedule A, 4.5 mg, n = 9, read-out: Effective T1/2, mean (SD) (converted)) of the same compound?
**A.** 48.3 h

**Q.** And the Vd/F (4.5 mg, cohort Schedule A, 4.5 mg, n = 9, read-out: Vz/F, GM (%CV))?
**A.** 15.7 L

**Q.** And the AUC(0-t) (4.5 mg, cohort Schedule A, 4.5 mg, n = 10, read-out: AUC(0–24), GM (%CV))?
**A.** 6790 ng·h/mL

**Q.** And the AUC(0-t) (4.5 mg, cohort Schedule A, 4.5 mg, n = 10, read-out: AUC(0–T), GM (%CV))?
**A.** 19100 ng·h/mL

**Q.** What about the Tmax (4.5 mg, cohort Schedule A, 4.5 mg, n = 10, read-out: Tmax, median) of the same compound?
**A.** 2.04 h

**Q.** And the Cmax (4.5 mg, cohort Schedule A, n = 10)?
**A.** 478 ng/mL

**Q.** What about the half-life (4.5 mg, cohort Schedule C, 4.5 mg, n = 5, read-out: Effective T1/2, mean (SD) (converted)) of the same compound?
**A.** 35.7 h

**Q.** And the Vd/F (4.5 mg, cohort Schedule C, 4.5 mg, n = 5, read-out: Vz/F, GM (%CV))?
**A.** 11.6 L

**Q.** And the AUC(0-t) (4.5 mg, cohort Schedule C, 4.5 mg, n = 7, read-out: AUC(0–24), GM (%CV))?
**A.** 7420 ng·h/mL

**Q.** What about the AUC(0-t) (4.5 mg, cohort Schedule C, 4.5 mg, n = 7, read-out: AUC(0–T), GM (%CV)) of the same compound?
**A.** 17200 ng·h/mL

**Q.** What about the Tmax (4.5 mg, cohort Schedule C, 4.5 mg, n = 7, read-out: Tmax, median) of the same compound?
**A.** 2.02 h

**Q.** And the Cmax (4.5 mg, cohort Schedule C, n = 7)?
**A.** 567 ng/mL

**Q.** What about the Tmax (0.75–4.5 mg, read-out: Time to peak plasma concentration (median Tmax)) of the same compound?
**A.** 1 to 4 h

**Q.** And the half-life (read-out: Mean T1/2, range across doses)?
**A.** 34 to 54 h
